Data reported in patent publication US20230365592A1 (Agios Pharmaceuticals, Inc., priority 2022, published 2023).

Target: T1, human PAH with the R408W mutation (Homo sapiens, UniProt P00439, R408W)
T1 construct: expressed in transfected cells
T1 sequence (P00439 1-452 R408W): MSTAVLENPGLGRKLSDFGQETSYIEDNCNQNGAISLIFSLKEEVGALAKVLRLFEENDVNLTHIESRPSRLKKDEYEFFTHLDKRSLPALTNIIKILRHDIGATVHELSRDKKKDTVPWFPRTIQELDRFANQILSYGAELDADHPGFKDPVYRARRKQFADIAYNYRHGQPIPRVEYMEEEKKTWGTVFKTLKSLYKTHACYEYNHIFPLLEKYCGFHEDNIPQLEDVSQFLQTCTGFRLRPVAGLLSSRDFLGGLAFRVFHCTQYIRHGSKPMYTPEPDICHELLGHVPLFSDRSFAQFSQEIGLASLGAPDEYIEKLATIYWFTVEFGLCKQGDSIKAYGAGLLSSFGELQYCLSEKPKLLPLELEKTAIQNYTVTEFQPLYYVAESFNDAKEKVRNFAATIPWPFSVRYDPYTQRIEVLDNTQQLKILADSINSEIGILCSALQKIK
Assay: Cell Based Phenylalanine Flux Assay;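 note: after compound treatment, cells received sepiapterin plus isotope-labelled Phenylalanine for 4 hours, then labelled Tyrosine in the medium was quantified, 10-point 2-fold dilution series run in duplicate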
Details: A375 cells expressing R408W PAH; 24 hrs with compound, then 20 µM sepiapterin and 800 µM 13C9,15N-Phenylalanine for 4 hours; 13C-Tyrosine by LC-MS; average where tested multiple times; read-out: AC50

AC50	Compound
> 5 µM	COc1ccc2c(C(=O)N3CCc4[nH]cnc4C3c3cc4cccc(C(F)F)n4n3)cnn2c1 (stereo not shown)
1 to 5 µM	Cn1nc(C(F)F)nc1C(=O)N1CCc2[nH]cnc2C1c1cc2cccc(C(F)(F)F)n2n1 (stereo not shown)
1 to 5 µM	Cn1cc(-c2nc(C3CC3)c(C(=O)N3CCc4[nH]cnc4C3c3cc4ccccn4n3)o2)cn1 (stereo not shown)
1 to 5 µM	FC(F)(F)c1cccc2cc(C3c4nc[nH]c4CCN3c3nnc(C4CCC4)o3)nn12 (stereo not shown)
1 to 5 µM	Cc1nc(C(C)O)oc1C(=O)N1CCc2[nH]cnc2C1c1cc2cccc(Cl)n2n1 (stereo not shown)
1 to 5 µM	CN(C)C(=O)c1nnc(N2CCc3[nH]cnc3C2c2cc3ccccn3n2)o1 (stereo not shown)

Compound	AC50
Cn1cc(-c2nnc(C(=O)N3CCc4[nH]cnc4C3c3nn4ccccc4c3Br)o2)cn1 (single isomer, unassigned)	1 to 5 µM

Same assay, conditions: A375 cells expressing human PAH R408W; 24 hrs compound incubation; 13C-Tyrosine by LC-MS; average where tested multiple times; read-out: AC50

AC50	Compound
1 to 5 µM	O=C(c1nnc(-c2cnn(C(F)(F)F)c2)o1)N1CCc2[nH]cnc2[C@@H]1c1cc2cccc(C(F)(F)F)n2n1 [Example 2429, (R)-(5-(1-(trifluoromethyl)-1H-pyrazol-4-yl)-1,3,4-oxadiazol-2-yl)(4-(7-(trifluoromethyl)pyrazolo[1,5-a]pyridin-2-yl)-6,7-dihydro-1H-imidazo[4,5-c]pyridin-5(4H)-yl)methanone]
1 to 5 µM	O=C(c1oc(-c2ccccn2)nc1C1CC1)N1CCc2[nH]cnc2[C@@H]1c1cc2c(F)cccn2n1 [Example 2119, (R)-(4-cyclopropyl-2-(pyridin-2-yl)oxazol-5-yl)(4-(4-fluoropyrazolo[1,5-a]pyridin-2-yl)-1,4,6,7-tetrahydro-5H-imidazo[4,5-c]pyridin-5-yl)methanone]
< 0.5 µM	Cc1cccn2nc([C@@H]3c4nc[nH]c4CCN3c3nnc(-c4c(F)cccc4F)o3)cc12 [Example 1845, (S)-2-(2,6-difluorophenyl)-5-(4-(4-methylpyrazolo[1,5-a]pyridin-2-yl)-6,7-dihydro-1H-imidazo[4,5-c]pyridin-5(4H)-yl)-1,3,4-oxadiazole]
> 5 µM	c1ccc(N2CCc3[nH]cnc3[C@@H]2c2cc3ccccn3n2)nc1 [Example 1815, (R)-4-(pyrazolo[1,5-a]pyridin-2-yl)-5-(pyridin-2-yl)-4,5,6,7-tetrahydro-1H-imidazo[4,5-c]pyridine]
1 to 5 µM	O=C(c1ocnc1C1CC1)N1CCc2[nH]cnc2[C@@H]1c1cc2cccc(Cl)n2n1 [Example 2043, (R)-(4-(7-chloropyrazolo[1,5-a]pyridin-2-yl)-1,4,6,7-tetrahydro-5H-imidazo[4,5-c]pyridin-5-yl)(4-cyclopropyloxazol-5-yl)methanone]
1 to 5 µM	COc1ccc2c(C(=O)N3CCc4[nH]cnc4[C@H]3c3cc4c(C)cccn4n3)cnn2c1 [Example 2450, (S)-(6-methoxypyrazolo[1,5-a]pyridin-3-yl)(4-(4-methylpyrazolo[1,5-a]pyridin-2-yl)-6,7-dihydro-1H-imidazo[4,5-c]pyridin-5(4H)-yl)methanone]
> 5 µM	Cc1cccc2cc([C@H]3c4nc[nH]c4CCN3c3ccc(C(F)(F)F)cn3)nn12 [Example 2096, (R)-4-(7-methylpyrazolo[1,5-a]pyridin-2-yl)-5-(5-(trifluoromethyl)pyridin-2-yl)-4,5,6,7-tetrahydro-1H-imidazo[4,5-c]pyridine]
< 0.5 µM	CC(C)c1cccn2nc([C@@H]3c4nc[nH]c4CCN3C(=O)c3nnc(-c4cnn(C)c4)o3)cc12 [Example 1886, (S)-(4-(4-isopropylpyrazolo[1,5-a]pyridin-2-yl)-1,4,6,7-tetrahydro-5H-imidazo[4,5-c]pyridin-5-yl)(5-(1-methyl-1H-pyrazol-4-yl)-1,3,4-oxadiazol-2-yl)methanone]
< 0.5 µM	c1cc(C2CC2)c2cc([C@@H]3c4nc[nH]c4CCN3c3cnccn3)nn2c1 [Example 2225, (S)-4-(4-cyclopropylpyrazolo[1,5-a]pyridin-2-yl)-5-(pyrazin-2-yl)-4,5,6,7-tetrahydro-1H-imidazo[4,5-c]pyridine]

Same assay, conditions: A375 cells expressing human R408W PAH; 24 hrs compound incubation; 13C-Tyrosine by LC-MS; average where tested multiple times; read-out: AC50

Compound	AC50
O=C(c1nnc(-c2cnccn2)o1)N1CCc2[nH]cnc2[C@@H]1c1cc2ccccn2n1 [Example 1363, (R)-(5-(pyrazin-2-yl)-1,3,4-oxadiazol-2-yl)(4-(pyrazolo[1,5-a]pyridin-2-yl)-6,7-dihydro-1H-imidazo[4,5-c]pyridin-5(4H)-yl)methanone]	> 5 µM
O=C(c1nnc(-c2ncccc2F)o1)N1CCc2[nH]cnc2[C@@H]1c1cc2c(C(F)F)cccn2n1 [Example 1427, (R)-(4-(4-(difluoromethyl)pyrazolo[1,5-a]pyridin-2-yl)-6,7-dihydro-1H-imidazo[4,5-c]pyridin-5(4H)-yl)(5-(3-fluoropyridin-2-yl)-1,3,4-oxadiazol-2-yl)methanone]	> 5 µM
O=C(c1nnc(-c2ccccn2)o1)N1CCc2[nH]cnc2[C@H]1c1cc2cccc(Cl)n2n1 [Example 1042, (S)-(4-(7-chloropyrazolo[1,5-a]pyridin-2-yl)-6,7-dihydro-1H-imidazo[4,5-c]pyridin-5(4H)-yl)(5-(pyridin-2-yl)-1,3,4-oxadiazol-2-yl)methanone]	< 0.5 µM
O=C(c1cn(-c2ccccn2)nc1Cl)N1CCc2[nH]cnc2[C@@H]1c1cc2ccccn2n1 [Example 675, (R)-(3-chloro-1-(pyridin-2-yl)-1H-pyrazol-4-yl)(4-(pyrazolo[1,5-a]pyridin-2-yl)-6,7-dihydro-1H-imidazo[4,5-c]pyridin-5(4H)-yl)methanone]	> 5 µM
O=C(c1ccnn1C(F)F)N1CCc2[nH]cnc2[C@H]1c1cc2ccc(F)cn2n1 [Example 1088, (S)-(1-(difluoromethyl)-1H-pyrazol-5-yl)(4-(6-fluoropyrazolo[1,5-a]pyridin-2-yl)-6,7-dihydro-1H-imidazo[4,5-c]pyridin-5(4H)-yl)methanone]	0.5 to 1 µM
O=C(c1cnco1)N1CCc2[nH]cnc2[C@@H]1c1cc2c(F)cccn2n1 [Example 761, (R)-(4-(4-fluoropyrazolo[1,5-a]pyridin-2-yl)-6,7-dihydro-1H-imidazo[4,5-c]pyridin-5(4H)-yl)(oxazol-5-yl)methanone]	1 to 5 µM
Cc1nc([C@@H](C)O)oc1C(=O)N1CCc2[nH]cnc2[C@H]1c1cc2c(F)cccn2n1 [Example 726, ((S)-4-(4-fluoropyrazolo[1,5-a]pyridin-2-yl)-6,7-dihydro-1H-imidazo[4,5-c]pyridin-5(4H)-yl)(2-((R)-1-hydroxyethyl)-4-methyloxazol-5-yl)methanone]	0.5 to 1 µM
CC(C)(O)c1nc(C2CC2)c(C(=O)N2CCc3[nH]cnc3[C@H]2c2cc3ccccn3n2)o1 [Example 624, (S)-(4-cyclopropyl-2-(2-hydroxypropan-2-yl)oxazol-5-yl)(4-(pyrazolo[1,5-a]pyridin-2-yl)-6,7-dihydro-1H-imidazo[4,5-c]pyridin-5(4H)-yl)methanone]	1 to 5 µM
O=C(c1oc(C2(O)CC2)nc1C(F)F)N1CCc2[nH]cnc2[C@H]1c1cc2c(Cl)cccn2n1 [Example 704, (S)-(4-(4-chloropyrazolo[1,5-a]pyridin-2-yl)-6,7-dihydro-1H-imidazo[4,5-c]pyridin-5(4H)-yl)(4-(difluoromethyl)-2-(1-hydroxycyclopropyl)oxazol-5-yl)methanone]	< 0.5 µM
Cc1ncccc1-c1nnc(C(=O)N2CCc3[nH]cnc3[C@@H]2c2cc3cccc(C(F)(F)F)n3n2)o1 [Example 1343, (R)-(5-(2-methylpyridin-3-yl)-1,3,4-oxadiazol-2-yl)(4-(7-(trifluoromethyl)pyrazolo[1,5-a]pyridin-2-yl)-6,7-dihydro-1H-imidazo[4,5-c]pyridin-5(4H)-yl)methanone]	1 to 5 µM
Cc1nc(C(C)(C)O)oc1C(=O)N1CCc2[nH]cnc2[C@H]1c1cc2c(F)cccn2n1 [Example 1000, (S)-(4-(4-fluoropyrazolo[1,5-a]pyridin-2-yl)-6,7-dihydro-1H-imidazo[4,5-c]pyridin-5(4H)-yl)(2-(2-hydroxypropan-2-yl)-4-methyloxazol-5-yl)methanone]	0.5 to 1 µM

Next, values leading:

AC50	Compound
< 0.5 µM	Cc1ncccc1-c1nnc(C(=O)N2CCc3[nH]cnc3[C@H]2c2cc3cccc(C(F)F)n3n2)o1 [Example 1500, (S)-(4-(7-(difluoromethyl)pyrazolo[1,5-a]pyridin-2-yl)-6,7-dihydro-1H-imidazo[4,5-c]pyridin-5(4H)-yl)(5-(2-methylpyridin-3-yl)-1,3,4-oxadiazol-2-yl)methanone]
< 0.5 µM	Fc1cccn2nc([C@@H]3c4nc[nH]c4CCN3c3ncccn3)cc12 [Example 1616, (S)-4-(4-fluoropyrazolo[1,5-a]pyridin-2-yl)-5-(pyrimidin-2-yl)-4,5,6,7-tetrahydro-1H-imidazo[4,5-c]pyridine]
0.5 to 1 µM	O=C(c1cnn2cc(N3CCOCC3)ccc12)N1CCc2[nH]cnc2[C@H]1c1cc2c(C(F)(F)F)cccn2n1 [Example 1614, (S)-(6-morpholinopyrazolo[1,5-a]pyridin-3-yl)(4-(4-(trifluoromethyl)pyrazolo[1,5-a]pyridin-2-yl)-6,7-dihydro-1H-imidazo[4,5-c]pyridin-5(4H)-yl)methanone]
0.5 to 1 µM	COc1ccc2c(C(=O)N3CCc4[nH]cnc4[C@H]3c3cc4c(F)cccn4n3)cnn2c1 [Example 1696, (S)-(4-(4-fluoropyrazolo[1,5-a]pyridin-2-yl)-6,7-dihydro-1H-imidazo[4,5-c]pyridin-5(4H)-yl)(6-methoxypyrazolo[1,5-a]pyridin-3-yl)methanone]
